Data published in US12508251B2, “CD4 mimic compound with anti-HIV activity” (NATIONAL UNIVERSITY CORPORATION KUMAMOTO UNIVERSITY, priority 2019, dated 2025).
“Also recorded” adds a separate entry of the source. Like-named read-outs stand apart in the source and are kept apart here.

What was measured:
[1] = Cytotoxicity (CC50) in TZM-bl cells, luminescence (CTG); assay type: cell-based; details: human
Description: (§1) In this Example, TZM-bl cells (available from NIH AIDS Reagent Program ([…].org/Index.cfm)) were used for individual evaluations. TZM-bl cells have CD4/CCR5/CXCR4 on the surface and express luciferase when infected with HIV. In this manner, TZM-bl cells serve as indicator cells. In the cells, β-galactosidase gene linked to HIV-1 LTR sequence is integrated. When the cells are infected with HIV-1, the tat gene of HIV-1 expresses a transcriptional activator Tat, which acts on the promoter region of LTR to express β-galactosidase. When a substrate is added, enzymatic cleavage occurs to produce galactose and luciferin. Luciferin is oxidized by luciferase to generate chemiluminescence, which can be detected by a luminometer to determine the number of cells infected with HIV-1. […] After each compound was serially diluted, TZM-bl cells (1×10^4) were added, cultured for 48 hours and collected. A Luc reporter reagent was added and the amount of luminescence (reagent: CTG) was measured […].

HIV isolate (KP5mvcR) = experiment: microbe, parasite or virus in culture; assay type: cell-based, HIV-1; details: for SI (selectivity index): CC50/IC50, TZM-bl cells, KP-5mvcR; for IC50: read-out: IC50 KP-5mvcR
Description: In this Example, TZM-bl cells (available from NIH AIDS Reagent Program (https://www.aidsreagent.org/Index.cfm)) were used for individual evaluations. TZM-bl cells have CD4/CCR5/CXCR4 on the surface and express luciferase when infected with HIV. In this manner, TZM-bl cells serve as indicator cells. In the cells, β-galactosidase gene linked to HIV-1 LTR sequence is integrated. When the cells are infected with HIV-1, the tat gene of HIV-1 expresses a transcriptional activator Tat, which acts on the promoter region of LTR to express β-galactosidase. When a substrate is added, enzymatic cleavage occurs to produce galactose and luciferin. Luciferin is oxidized by luciferase to generate chemiluminescence, which can be detected by a luminometer to determine the number of cells infected with HIV-1.
2) IC50 (Calculation of Anti-HIV Activity)
After each compound was serially diluted, TZM-bl cells (1×10^4) and 100TCID50 of HIV isolate (KP5mvcR) were added, and then, cultured for 48 hours. Thereafter, the cells were collected and a Luc reporter reagent was added. The amount of luminescence was measured to calculate the inhibition rate of infection (IC50). The HIV isolate (KP5mvcR) is an MVC resistant HIV clone, which was obtained by subjecting a clinical isolate KP-5 (YTA) to passage culture with PM1 CCR5 cells in the presence of MVC over 48 passages to obtain MVC resistant KP-5Env, which was inserted into NL43 vector (Yoshimura K, et al., J. Gen. Virol., 95, 1816-1826, 2014).

[2] = In vitro decomposition releasing the alkyl or PEG chain in PBS; assay type: physicochemical; details: PBS of pH7.4 at 37° C.
Protocol: The compound obtained in Example 5 (YIS-527) has an alkyl chain bound to a side chain of YIR-821 via a —C(═O)O— group, and it is assumed that the compound is hydrolyzed in vitro and in vivo. Accordingly, in this Example, an alkyl chain released in vitro was measured.
With respect to compound (YIS-540) having a PEG chain bound to a side chain of YIR-821 via a —C(═O)O— group obtained in Example 6, the PEG chain released in vitro was measured in the same manner as in Example 7.

TZM-bl cells = experiment: Cytotoxicity (CC50) in TZM-bl cells, luminescence (CTG); assay type: cell-based; details: TZM-bl cells, cultured for 48 hours
Description: as §1

[3] = Blood half-life after intravenous injection, blood concentration by HPLC; assay type: in vivo, Macaque monkey
Protocol: A Macaque monkey (MM616, body weight 8.00 kg) was intravenously injected with YIR-821 at a dose of 192 mg (10.1 mg/mL). A blood sample was taken from the monkey, 21, 39, 63, 91, 98, 113, 143, 201, 328 and 453 minutes later, and the concentration of YIR-821 in the blood was measured by HPLC.
HPLC conditions are as follows. • Measuring device: JASCO PU-2089 plus (JASCO Corporation, Ltd.) • Column: Cosmosil 5C18-ARII column (4.6×250 mm, Nacalai Tesque, Inc.) • Solvent A: H2O containing 0.1% (v/v) TFA • Solvent B: CH3CN containing 0.1% (v/v) TFA • Gradient: 20-50% solvent B in solvent A, 30 minutes • Flow rate: 1 cm^3/min • Detection: Detection at 260 nm-UV
In the same manner as in Reference Example 1, Macaque monkey (MM616, body weight 8.78 kg) was intravenously injected with TKB-002 trifluoroacetate obtained in Example 2 at a dose of 23.4 μmol (33.2 mg/20 mL). A blood sample was taken before, during and after administration (at a time point of 10 minutes, 37 minutes, 1 hour, 2.5 hours, 4.5 hours, 6.5 hours and 24 hours after administration). Blood concentration was measured by HPLC in the same conditions as in Reference Example 1.

[4] = Stability on incubation with human liver microsomes, HPLC; assay type: in vitro ADME; details: 60 minutes at 37° C., NADPH, NaPB pH 7.4
Protocol: More specifically, TKB-002 trifluoroacetate was dissolved in a 100 mM sodium phosphate buffer (NaPB, pH 7.4) to obtain a 0.3 mM solution. This solution (183 μL) was mixed with 20 mM NADPH (2 μL) in 100 mM NaPB (pH 7.4), and 5 μL of 20 mg/mL human liver microsome (Human Microsomes, 50 Donors (ThermoFisher Scientific, cat #: HMMCPL, Lot #: PL050E-A)) solution. After the mixture was pre-incubated at 37° C. for 5 minutes, 20 mM NADPH solution (10 μL) was added to the mixture, which was incubated while gently stirring for 60 minutes at 37° C.
Subsequently, 200 μL of ethyl acetate was added to the mixture to terminate the reaction. The mixture was stirred by a vortex mixer and centrifuged at 3,000 rpm for 5 minutes. The supernatant was filtered and ethyl acetate was removed with nitrogen gas.
To the mixture, 50 μL of MeCN containing 0.1% TFA was added and analysis was carried out by HPLC in the same conditions as in Reference Example 1 and Example 4.

[5] = Human immunodeficiency virus 1, TZM-bl, 48 h
[6] = TZM-bl cells, 100TCID50 of KP5mvcR, 48 hours

Row | Compound | CC50 at 48 h [1] | SI (selectivity index) (HIV isolate (KP5mvcR)) | IC50 (HIV isolate (KP5mvcR); [5]) | also measured
1 | CCCCCCCCCCCCCCCCNC(=O)CCC(=O)OC(CCCNC(=N)N)C(=O)NCCN1CCC(NC(=O)C(=O)Nc2ccc(Cl)cc2)CC12CCCCC2 (stereo not drawn) [YIS-527, 1-((2-(4-(2-((4-chlorophenyl)amino)-2-oxoacetamido)-1-azaspiro[5.5]undecan-1-yl)ethyl)amino)-5-guanidino-1-oxopentan-2-yl 4-(hexadecylamino)-4-oxobutanoate] | 17 ± 0.22 µM | 14 | 1.2 ± 0.11 µM | decomposition releasing the alkyl or PEG chain [2]: decomposition reaction was observed
2 | COCCOCCOCCOCCOCCOCCOCCOCCOCCOCCOCCOCCOCCOCCOCCOCCOCCOCCOCCOCCOCCOCCOCCOCCNC(=O)CCC(=O)N[C@@H](CCCNC(=N)N)C(=O)NCCN1CCC(NC(=O)C(=O)Nc2ccc(Cl)cc2)CC12CCCCC2 (stereo partly drawn) [TKB-003] | – | – | – | CC50 (TZM-bl cells): 40 ± 14 µM; IC50 (HIV isolate (KP5mvcR); [6]): < 0.1 µM
3 | O=C1Nc2ccc(Cl)cc2[C@@](C#CC2CC2)(C(F)(F)F)O1 [EFV, efavirenz, reference compound] | – | 6,829 | 0.0041 ± 0.00099 µM | CC50 at 48 h ([1]; TZM-bl cells, cultured for 48 hours, read-out: CC50): 28 ± 3.4 µM
4 | COCCOCCOCCOCCOCCNC(=O)CCC(=O)OC(CCCNC(=N)N)C(=O)NCCN1CCC(NC(=O)C(=O)Nc2ccc(Cl)cc2)CC12CCCCC2 (stereo not drawn) [YIS-540, 1-((2-(4-(2-((4-chlorophenyl)amino)-2-oxoacetamido)-1-azaspiro[5.5]undecan-1-yl)ethyl)amino)-5-guanidino-1-oxopentan-2-yl 18-oxo-2,5,8,11,14-pentaoxa-17-azahenicosan-21-oate] | 109 ± 8.2 µM | 6412 | 0.017 ± 0.011 µM | decomposition releasing the alkyl or PEG chain [2]: decomposition reaction was observed
5 | CC1(C)CC(NC(=O)C(=O)Nc2ccc(Cl)cc2)CC(C)(C)N1 [NBD-556, reference compound] | – | – | – | CC50 (TZM-bl cells): 177 ± 9.5 µM; IC50 (HIV isolate (KP5mvcR); [6]): 0.27 ± 0.052 µM
6 | COCCOCCOCCOCCOCCOCCOCCOCCOCCOCCOCCOCCNC(=O)CCC(=O)N[C@@H](CCCNC(=N)N)C(=O)NCCN1CCC(NC(=O)C(=O)Nc2ccc(Cl)cc2)CC12CCCCC2 (stereo partly drawn) [TKB-002, N^1-((2S)-1-((2-(4-(2-((4-chlorophenyl)amino)-2-oxoacetamido)-1-azaspiro[5.5]undecan-1-yl)ethyl)amino)-5-guanidino-1-oxopentane-2-yl)-N^4-(2,5,8,11,14,17,20,23,26,29,32,35-dodecaoxaheptatriacontan-37-yl)succinamide] | > 100 µM | >1,000 | < 0.1 µM | blood half-life relative to YIR-821 ([3]; Macaque monkey, intravenous injection): 3.48 times; half-life ([3]; blood, 23.4 μmol, Macaque monkey MM616, intravenous injection): 1.8 h; stability in the presence of human liver microsomes (HPLC peak intensity) [4]: the intensity of the peak was the same as before incubation; also recorded: stable even in the presence of human liver microsomes
7 | COCCOCCOCCOCCOCCNC(=O)CCC(=O)N[C@@H](CCCNC(=N)N)C(=O)NCCN1CCC(NC(=O)C(=O)Nc2ccc(Cl)cc2)CC12CCCCC2 (stereo partly drawn) [TKB-001, N^1-((2S)-1-((2-(4-(2-((4-chlorophenyl)amino)-2-oxoacetamido)-1-azaspiro[5.5]undecan-1-yl)ethyl)amino)-5-guanidino-1-oxopentan-2-yl)-N4-(2,5,8,11,14-pentaoxahexadecan-16-yl)succinamide] | > 100 µM | >769 | 0.13 ± 0.026 µM | –
